Laboratory results published in ChEMBL document CHEMBL2434921, “New synthetic aliphatic sulfonamido-quaternary ammonium salts as anticancer chemotherapeutic agents” (2013).
The source made the active and inactive calls. No cut-off for these calls is given here.

What was measured:
MDA-MB-231 [1] = assay: Growth of human MDA-MB-231 cells at 10 uM after 48 hrs by SRB assay; conditions: MDA-MB-231, 48 h
ACHN [2] = assay: Growth inhibition of human ACHN cells after 48 hrs by SRB assay; format: functional
NCI-H23 [3] = assay: Growth inhibition of human NCI-H23 cells at 0.1 uM after 48 hrs by SRB assay; values are per cent of control; conditions: NCI-H23, 48 h
HCT-15 [4] = assay: Growth inhibition of human HCT15 cells after 48 hrs by SRB assay; format: functional; conditions: HCT-15, 48 h
NCI-H23 [5] = assay: Growth inhibition of human NCI-H23 cells at 1 uM after 48 hrs by SRB assay; values are per cent of control; conditions: NCI-H23, 48 h
ACHN [6] = assay: Growth of human ACHN cells at 0.3 uM after 48 hrs by SRB assay
NUGC-3 [7] = assay: Growth inhibition of human NUGC3 cells at 10 uM after 48 hrs by SRB assay; values are per cent of control; conditions: NUGC-3, 48 h
MDA-MB-231 [8] = assay: Growth of human MDA-MB-231 cells at 3 uM after 48 hrs by SRB assay; values are per cent of control; conditions: MDA-MB-231, 48 h
ACHN [9] = assay: Growth inhibition of human ACHN cells at 3 uM after 48 hrs by SRB assay; values are per cent of control
PC-3 [10] = assay: Growth inhibition of human PC3 cells at 0.1 uM after 48 hrs by SRB assay; values are per cent of control; conditions: PC-3, 48 h
MDA-MB-231 [11] = assay: Growth of human MDA-MB-231 cells at 0.1 uM after 48 hrs by SRB assay; conditions: MDA-MB-231, 48 h
HCT-15 [12] = assay: Growth inhibition of human HCT15 cells at 1 uM after 48 hrs by SRB assay; values are per cent of control; conditions: HCT-15, 48 h
[13] = target: Rho-related GTP-binding protein RhoB (Homo sapiens) (UniProt P62745); assay: Transactivation of RhoB (unknown origin) transfected in human HeLa cells at 5 uM measured over 10 secs by dual luciferase reporter gene assay; format: cell-based
Sequence of Rho-related GTP-binding protein RhoB (Homo sapiens) (P62745 whole entry): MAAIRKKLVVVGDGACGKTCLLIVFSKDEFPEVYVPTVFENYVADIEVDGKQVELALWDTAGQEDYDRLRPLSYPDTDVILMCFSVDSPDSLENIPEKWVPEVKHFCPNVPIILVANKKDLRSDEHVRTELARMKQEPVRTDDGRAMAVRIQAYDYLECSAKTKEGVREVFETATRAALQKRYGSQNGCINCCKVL

MDA-MB-231 [14] = assay: Growth inhibition of human MDA-MB-231 cells after 48 hrs by SRB assay; format: functional; conditions: MDA-MB-231, 48 h
NCI-H23 [15] = assay: Growth inhibition of human NCI-H23 cells after 48 hrs by SRB assay; format: functional; conditions: NCI-H23, 48 h
HCT-15 [16] = assay: Growth inhibition of human HCT15 cells at 0.1 uM after 48 hrs by SRB assay; values are per cent of control; conditions: HCT-15, 48 h
PC-3 [17] = assay: Growth inhibition of human PC3 cells at 1 uM after 48 hrs by SRB assay; values are per cent of control; conditions: PC-3, 48 h
NCI-H23 [18] = assay: Growth of human NCI-H23 cells at 10 uM after 48 hrs by SRB assay; conditions: NCI-H23, 48 h
HCT-15 [19] = assay: Growth of human HCT15 cells at 3 uM after 48 hrs by SRB assay; conditions: HCT-15, 48 h
PC-3 [20] = assay: Growth of human PC3 cells at 10 uM after 48 hrs by SRB assay; conditions: PC-3, 48 h
NUGC-3 [21] = assay: Growth inhibition of human NUGC3 cells at 3 uM after 48 hrs by SRB assay; values are per cent of control; conditions: NUGC-3, 48 h
ACHN [22] = assay: Growth inhibition of human ACHN cells at 1 uM after 48 hrs by SRB assay; values are per cent of control
NUGC-3 [23] = assay: Growth inhibition of human NUGC3 cells after 48 hrs by SRB assay; format: functional; conditions: NUGC-3, 48 h
MDA-MB-231 [24] = assay: Growth of human MDA-MB-231 cells at 1 uM after 48 hrs by SRB assay; conditions: MDA-MB-231, 48 h
NUGC-3 [25] = assay: Growth of human NUGC3 cells at 0.3 uM after 48 hrs by SRB assay; conditions: NUGC-3, 48 h
HCT-15 [26] = assay: Growth of human HCT15 cells at 0.3 uM after 48 hrs by SRB assay; conditions: HCT-15, 48 h
PC-3 [27] = assay: Growth inhibition of human PC3 cells at 3 uM after 48 hrs by SRB assay; values are per cent of control; conditions: PC-3, 48 h
PC-3 [28] = assay: Growth inhibition of human PC3 cells at 0.3 uM after 48 hrs by SRB assay; values are per cent of control; conditions: PC-3, 48 h
MDA-MB-231 [29] = assay: Growth inhibition of human MDA-MB-231 cells at 0.3 uM after 48 hrs by SRB assay; values are per cent of control; conditions: MDA-MB-231, 48 h
ACHN [30] = assay: Growth of human ACHN cells at 10 uM after 48 hrs by SRB assay
PC-3 [31] = assay: Growth inhibition of human PC3 cells after 48 hrs by SRB assay; format: functional; conditions: PC-3, 48 h
NUGC-3 [32] = assay: Growth of human NUGC3 cells at 1 uM after 48 hrs by SRB assay; conditions: NUGC-3, 48 h
ACHN [33] = assay: Growth of human ACHN cells at 0.1 uM after 48 hrs by SRB assay
HCT-15 [34] = assay: Growth inhibition of human HCT15 cells at 10 uM after 48 hrs by SRB assay; values are per cent of control; conditions: HCT-15, 48 h
NCI-H23 [35] = assay: Growth of human NCI-H23 cells at 0.3 uM after 48 hrs by SRB assay; conditions: NCI-H23, 48 h
NCI-H23 [36] = assay: Growth inhibition of human NCI-H23 cells at 3 uM after 48 hrs by SRB assay; values are per cent of control; conditions: NCI-H23, 48 h
NUGC-3 [37] = assay: Growth of human NUGC3 cells at 0.1 uM after 48 hrs by SRB assay; conditions: NUGC-3, 48 h

Compound	growth, % of control at 10 µM (MDA-MB-231 [1]) [%]	GI50 (ACHN [2]) [nM]	growth, % of control at 0.1 µM (NCI-H23 [3]) [%]	GI50 (HCT-15 [4]) [nM]	growth, % of control at 1 µM (NCI-H23 [5]) [%]	growth, % of control at 0.3 µM (ACHN [6]) [%]	growth, % of control at 10 µM (NUGC-3 [7]) [%]	growth, % of control at 3 µM (MDA-MB-231 [8]) [%]	growth, % of control at 3 µM (ACHN [9]) [%]	growth, % of control at 0.1 µM (PC-3 [10]) [%]	growth, % of control at 0.1 µM (MDA-MB-231 [11]) [%]	growth, % of control at 1 µM (HCT-15 [12]) [%]	Activity [13]	GI50 (MDA-MB-231 [14]) [nM]	GI50 (NCI-H23 [15]) [nM]	growth, % of control at 0.1 µM (HCT-15 [16]) [%]	growth, % of control at 1 µM (PC-3 [17]) [%]	growth, % of control at 10 µM (NCI-H23 [18]) [%]	growth, % of control at 3 µM (HCT-15 [19]) [%]	growth, % of control at 10 µM (PC-3 [20]) [%]	also measured
C=CC[N+](C)(C)CCN(C)S(=O)(=O)CCCCCCCCCCCCCCCC	18.4	3480	101	4730	69.8	130	9.4	39.4	69.3	99.9	108	97.2	Active	1350	890	100	61.8	2.5	76.5	-4.8	growth, % of control at 3 µM (NUGC-3 [21]): 20.9%; growth, % of control at 1 µM (ACHN [22]): 112%; GI50 (NUGC-3 [23]): 760 nM; growth, % of control at 1 µM (MDA-MB-231 [24]): 86.5%; growth, % of control at 0.3 µM (NUGC-3 [25]): 105%; growth, % of control at 0.3 µM (HCT-15 [26]): 101%; growth, % of control at 3 µM (PC-3 [27]): 10.1%; growth, % of control at 0.3 µM (PC-3 [28]): 95.9%; growth, % of control at 0.3 µM (MDA-MB-231 [29]): 104%; growth, % of control at 10 µM (ACHN [30]): 38.6%; GI50 (PC-3 [31]): 620 nM; growth, % of control at 1 µM (NUGC-3 [32]): 65.5%; growth, % of control at 0.1 µM (ACHN [33]): 135%; growth, % of control at 10 µM (HCT-15 [34]): 48.7%; growth, % of control at 0.3 µM (NCI-H23 [35]): 96.2%; growth, % of control at 3 µM (NCI-H23 [36]): 30.9%; growth, % of control at 0.1 µM (NUGC-3 [37]): 108%
CCCCCCCCCCCCCCCCS(=O)(=O)NCCC[N+](C)(C)CC	9.2	1290	81.3	1200	73.4	90.6	-34.3	39.3	48.4	84.1	72.6	78	Active	910	910	90	56.3	-21.5	35.3	-32.4	growth, % of control at 3 µM (NUGC-3 [21]): 7.5%; growth, % of control at 1 µM (ACHN [22]): 76.6%; GI50 (NUGC-3 [23]): 320 nM; growth, % of control at 1 µM (MDA-MB-231 [24]): 75.5%; growth, % of control at 0.3 µM (NUGC-3 [25]): 73.5%; growth, % of control at 0.3 µM (HCT-15 [26]): 91.7%; growth, % of control at 3 µM (PC-3 [27]): -11.8%; growth, % of control at 0.3 µM (PC-3 [28]): 79.7%; growth, % of control at 0.3 µM (MDA-MB-231 [29]): 75.7%; growth, % of control at 10 µM (ACHN [30]): -6.7%; GI50 (PC-3 [31]): 560 nM; growth, % of control at 1 µM (NUGC-3 [32]): 41.8%; growth, % of control at 0.1 µM (ACHN [33]): 87.7%; growth, % of control at 10 µM (HCT-15 [34]): 16.3%; growth, % of control at 0.3 µM (NCI-H23 [35]): 82.9%; growth, % of control at 3 µM (NCI-H23 [36]): 32.2%; growth, % of control at 0.1 µM (NUGC-3 [37]): 74.4%
